Measured values published in patent US6017958A, “Method of treating malignant tumors with thyroxine analogues having no significant hormonal activity” (Octamer, Inc., priority 1997, dated 2000).
Where two headings read alike, the source gives them in different places.

Assays:
HeLa (cervical cancer) = assay: Cytocidal action/growth inhibition, HeLa; type: cell-based; settings: Homo sapiens, 72 h
Procedure: (§1) Seven human cancer cell lines were obtained from the American Tissue Culture Collection (Rockville, Md.) and maintained in the recommended growth media. Cells were seeded into wells (2 cm^2) at a density of 2×10^4 cells/cm^2. Various concentrations of Compounds 1-13 were added to the media at the time of seeding.
(§2) The cultures were incubated for 72 hours at 37° C. (5% CO2 atmosphere). Following incubation, cells were detached with trypsin and counted in a hemocytometer.
(§3) I100 designates the concentration at which no viable cells remained; I50 the concentration at which 50% viable cells remained, as compared to a control.
(§4) E-ras 20 cells were cultured as reported, Bauer et al., 1996, "Modification of growth related enzymatic pathways and apparent loss of tumorigenicity of a ras-transformed bovine endothelial cell line by treatment with 5-iodo-6-amino-1,2-benzopyrone (INH2 BP)" Intl. J. Oncol. 8:239-252; HT-144 (melanoma), DU-145 (prostatic cancer), HeLa (cervical cancer), HL 60 (promyelocytic leukemia), MDA-MB-231 (mammary cancer), SK-Br-3 (mammary cancer), T47D (ductal mammary cancer), A559 (lung cancer) were obtained from American Type Culture Collection (Rockville, Md.) and cultured in prescribed media. The effect of DIME was tested in cultures with a starting cell density of 2×10^4 cells per cm^2 and comparison of the effect of DIME on cell growth (intact cells identified by Trypan blue exclusion) was assayed by direct cell counting after trypsinization in a hemocytometer 72 hours after drug addition.
(§5) For DIME-exposure experiments cells were seeded into 2 cm^2 wells at a density of 2×10^4 cells/cm^2. DIME at various concentrations was added to the medium at the time of seeding. The cell cultures were then incubated for 3 days (37° C. in 5% at CO2 atmosphere).

HT 144 (melanoma) = assay: Cytocidal action/growth inhibition, HT 144; type: cell-based; settings: Homo sapiens
Procedure: as §1, §2, §3, §4, §5

MDA-MB-231 cells [1] = assay: Immunocytochemistry of mitotic spindle and spindle-associated proteins; type: cell-based, human; settings: 18 hrs
Procedure: Cells were fixed in methanol at -20° C. for 5 min. The primary antibody was mouse monoclonal anti-beta tubulin (Amersham) and secondary antibody from goat, conjugated to fluorescein isothiocyanate from Cappel (Durham, N.C., USA). The DNA of nuclei was stained by 10 min of incubation in 0.05 μg/ml 4'-6-diamidono-2-phenylindole (DAPI). Stained cells were viewed with either a Zeiss 40xPlan-Neofluar or a Nikon 60xPlanApo objective. For classification of cells in the mitotic phase, prophase and metaphase were combined into a single category, because it was difficult to distinguish late prophase from metaphase.
In preliminary studies (data not shown) we have also studied the behavior of certain spindle-associated proteins by the immunocytologic technique.

SK-Br-3 (mammary cancer) = assay: Cytocidal action/growth inhibition, SK-Br-3; type: cell-based; settings: Homo sapiens
Procedure: as §1, §2, §3, §4, §5

DIME-esterase = assay: Esterase cleavage of DIME in tissue homogenates; type: in vitro ADME; settings: mouse tissue homogenates
Procedure: (a) mouse tissue homogenate (brain, kidney, liver lung) consisting of 0.2 g of tissue in 1.0 ml. of homogenization buffer (50 mM Tris (pH 7.4), 400 mM NaCl, 10 mM MgCl2, 1 mM EDTA, 0.5% NP-40, 0.5 mM PMSF) each were combined with 1.0 ml of MES buffer (100 mM ph 6.5) containing 20 μM [^14 C]-DIME (10.55 mCi/mmol), and the mixtures were incubated at 37° C. for 4 hours. Then to each tube was added sequentially ethyl acetate (1.5 ml), ammonium sulfate (900 mg) and 60% perchloric acid (160 μl), with vortexing after each addition. After standing for 10 minutes, phase separation was enhanced by benchtop centrifugation. The upper (ethyl acetate) layer was drawn off, and the lower aqueous and interphase material was extracted with a second portion of ethyl acetate (1.5 ml). The ethyl acetate extracts (combined) contained more than 90% of the total cpm present in the original incubate (ca. 4×10^5 cpm). The extracts were evaporated to dryness using a stream of N^2, the respective residues taken up in ethyl acetate (100 μl) and aliquots (10 μl) spotted on analytical silica-gel TLC plates (Whatman PE SIL G/UV flexible plates 250 μm thickness, 10 cm×20 cm) and developed with 3:1:0.8 v:v:v n-hexane/ethyl acetate/ethanol. Analyte bands, including [^14 C]-DIME as reference standard, were visualized by autoradiography. […]
radioactivity of the [^14 C]-DIME was 20,470 cpm/nmol.

MDA-MB-231 cells [2] = assay: Time-lapse videomicroscopy of mitosis; type: cell-based, human
Procedure: Cells in sealed T-25 tissue culture flasks were placed into a temperature-controlled incubation chamber built to enclose an inverted phase-contrast microscope. The chamber was shielded from ambient room light. Every 5 min, the microscope light was switched on for 12s, during which time an image was captured by an imaging system obtained from Compix, Inc. (Mars, Pa., USA). Image sequences were analyzed with software from the same company.
^a Mitoses were monitored by timelapse videomicroscopy during
continuous exposure of cells to DIME;
^b Fusion of daughter cells usually occurred within minutes of
cytokinesis and involved 2-5 daughter cells.

A-549 cells = assay: DIME action on A-549 cells with esterase inhibitor BNPP; type: cell-based, human; settings: with bis[p-nitrophenyl] phosphate
[3] = test system: MDA-MD-231 (mammary cancer); assay: Cytocidal action/growth inhibition, MDA-MB-231; type: cell-based; settings: Homo sapiens
Procedure: as §1, §2, §3, §4, §5

COC(=O)c1cc(I)c(Oc2ccc(OC)cc2)c(I)c1 [Compound 1, Methyl 3,5-diiodo-4-(4'-methoxyphenoxy)benzoate]
IC50 (HeLa (cervical cancer); Table 4, read-out: I50): 600 nM | IC100 (HeLa (cervical cancer); Table 4, read-out: I100 (no viable cells remained)): 3.5 µM | IC50 (HeLa (cervical cancer); day 3, Table 11, read-out: I50 (day 3)): 600 nM | IC50 (HT 144 (melanoma); HT-144, 72 h, day 3, Table 11, read-out: I50 (day 3)): 500 nM | IC50 (HT 144 (melanoma); HT-144, 72 h, Table 4, read-out: I50): 500 nM | IC100 (HT 144 (melanoma); HT-144, 72 h, Table 4, read-out: I100 (no viable cells remained)): 4 µM | mitotic spindle / tubulin distribution (MDA-MB-231 cells [1]; 1 μM): striking abnormalities of-tubulin distribution | Cyclin B-microtubule-spindle association (MDA-MB-231 cells [1]; 1 μM, data not shown): remained unchanged | cdc-2 kinase-spindle binding (MDA-MB-231 cells [1]; 1 μM, data not shown): induction of cdc-2-kinase-spindle binding | number of centrosomes (MDA-MB-231 cells [1]; 1 μM, data not shown): unable to detect abnormal number of centrosomes | pericentrin staining pattern (MDA-MB-231 cells [1]; 1 μM, data not shown): did not alter the pattern of staining | protein phosphatase 2a-spindle association (MDA-MB-231 cells [1]; 1 μn (so in the source), data not shown): not influenced by drug-treatment | IC50 (SK-Br-3 (mammary cancer); SK-BR-3, 72 h, day 3, Table 11, read-out: I50 (day 3)): 600 nM | IC50 (SK-Br-3 (mammary cancer); SK-BR-3, 72 h, Table 4, read-out: I50): 600 nM | IC100 (SK-Br-3 (mammary cancer); SK-BR-3, 72 h, Table 4, read-out: I100 (no viable cells remained)): 5 µM | DIME-esterase activity (DIME-esterase): highest rate of "DIME-esterase" activity occurred in brain homogenates | increase of average time spent in mitosis (MDA-MB-231 cells [2]; 1 μM): more than 20 fold | mitoses yielding daughter cells which fused (share) (MDA-MB-231 cells [2]; 1 μM): Twenty percent | rate of entry into mitosis / traversal of interphase (MDA-MB-231 cells [2]; 1 μM): did not affect the rate at which the cells traversed interphase | No. of mitosis followed by fusion of daughter cells (MDA-MB-231 cells [2]; 1.0 μM, 35 mitoses monitored, control 0 of 32): 7 | delay in mitosis (MDA-MB-231 cells [2]; 1 μM, control approximately 0.5 hr): 13 h | daughter cells in irregular division (FIG. 12) (MDA-MB-231 cells [2]; 1 μM, control exactly 2): 6 daughter cells | cell killing with esterase inhibition (A-549 cells): much more effective cell killing | IC50 ([3]; MDA-MB-231, 72 h, day 3, Table 11, read-out: I50 (day 3)): 400 nM | IC50 ([3]; MDA-MB-231, 72 h, Table 4, read-out: I50): 400 nM | IC100 ([3]; MDA-MB-231, 72 h, Table 4, read-out: I100 (no viable cells remained)): 3 µM
